{
  "source": "patent US10227362B2",
  "about": "(priority 2015, dated 2019)",
  "type_in_all_cases": "cell-based",
  "key": {"[1]": {"test_system": "Mycobacterium bovis BCG strain TMC1019 (ATCC35737)", "test": "microbe, parasite or virus in culture", "details": "Mycobacterium tuberculosis variant bovis BCG, 24 h, read-out: M. bovis ATCC35737 (ug/mL)"}, "[2]": {"test_system": "Mycobacterium tuberculosis H37Rv strain", "test": "In vitro MIC against M. tuberculosis H37Rv strain (MABA, Alamar Blue)", "protocol": "Part I: The in vitro efficacy of anti-Mycobacterium tuberculosis compounds was tested using H37Rv strain.\nOn the day of the test, the compound was dissolved in pure DMSO (Sigma 276855-2L) to a concentration of 10 mg/mL which was used as the mother liquor of the compound. 30 μL of DMSO was added to wells of column 2 to 11 s of the v-bottom 96-well plates (Axygen-wipp02280). 30 μL of the mother liquor of the compound was added to the well of column 2, after mixing, 30 μL was taken from the well of column 2 and added to the well of column 3, and then pipetted and mixed. The operation was taken to column 10. Column 11 was free of medicine and contained only 30 μL of DMSO. This was the “motherplate” of the compound. From column 2 to 11, the corresponding concentration of the compound was 5, 2.5, 1.25, 0.625, 0.3125, 0.156, 0.078, 0.039, 0.02, 0 mg/mL. […] A flat bottom 96-well plate (Greiner 655090) was used as a “daughterplate”. 98 μL of 7H9 (Sigma M0178) medium was added to the wells of all daughterplates. 2 μL of compound was extracted from the motherboard and added to the corresponding daughter plate. Line A and H, column 1 and 12 of the daughterplate contained only 7H9 medium.\nThe H37Rv strain in the glycerol cryovial was inoculated into 7H9 medium containing 0.05% Tween 80 and cultured for 4 weeks at 37° C. in a shaker with 200 rpm. The bacterial liquid was washed twice with 7H9 medium containing 0.05% Tween 80 and resuspended in the same medium. The absorbance of the bacteria liquid was adjusted to OD550=0.4-0.5 using the same medium. The bacteria liquid was sub-packed in microcentrifuge tubes and stored at −80° C. Storage time was no more than 1 month. On the day of the test, the packaged bacteria liquid would be […]. The bacteria liquid was diluted 20 times and then diluted 50 times with 7H9 medium, and a total of 1000 times dilution. The bacteria liquid would be used to inoculate on the daughterplate. 100 μL of bacterial liquid was inoculated in each well of the daughterboard, 100 μL 7H9 medium was added to column 12 and without bacteria liquid.\nThe test daughterplate was placed in an incubator at 37° C. and the humidity was maintained at >80%. A week later, 12.5 μL of 7H9 medium containing 20% Tween 80 and 20 μL of Alamar Blue (Invitrogen DAL1100) were added to the well of a column 1 containing bacteria and the well of a column 12 without bacteria every day, and then continue to incubate for 24 hours and observed. When the added Alamar Blue was reduced to pink in 24 hours by the bacteria liquid in the well of column 1, the 7H9 medium containing 20% Tween 80 and Alamar Blue were added to all wells on the test plate and the fluorescence values were measured after incubation for 24 hours at 37° C."}, "M. tuberculosis H37R": {"test_system": "M. tuberculosis H37R", "test": "M. tuberculosis LORA MIC", "details": "Mycobacterium tuberculosis, read-out: M. tuberculosis H37R LORA (MIC) (ug/mL)"}, "Vero Cell": {"test_system": "Vero Cell", "test": "Vero cell cytotoxicity", "details": "Chlorocebus sabaeus, Vero cells"}},
  "data": [
    {"smiles": "C[C@]1(CN2CCc3nc(-c4ccc(F)c(F)c4)ccc3C2)Cn2cc([N+](=O)[O-])nc2O1", "note": "[Compound 12, (S)-2-((2-(3,4-Difluorophenyl)-7,8-dihydro-1,6-naphthyridin-6(5H)-yl)methyl)-2-methyl-6-nitro-2,3-dihydroimidazo[2,1-b]oxazole]", "values": [
      {"measurement": "MIC", "setting": "[1]", "value": "< 1", "unit": "µg/mL"},
      {"measurement": "MIC", "setting": "[2]", "value": "< 1", "unit": "µg/mL"},
      {"measurement": "MIC", "setting": "M. tuberculosis H37R", "value": "1 to 32", "unit": "µg/mL"},
      {"measurement": "IC50", "setting": "Vero Cell", "value": "> 32", "unit": "µg/mL"}
    ]},
    {"smiles": "C[C@]1(CN2CCc3nc(-c4ccc(Cl)c(F)c4)ccc3C2)Cn2cc([N+](=O)[O-])nc2O1", "note": "[Compound 20, (S)-2-((2-(4-Chloro-3-fluorophenyl)-7,8-dihydro-1,6-naphthyridin-6(5H)-yl)methyl)-2-methyl-6-nitro-2,3-dihydroimidazo[2,1-b]oxazole]", "values": [
      {"measurement": "MIC", "setting": "[1]", "value": "< 1", "unit": "µg/mL"},
      {"measurement": "MIC", "setting": "[2]", "value": "< 1", "unit": "µg/mL"},
      {"measurement": "MIC", "setting": "M. tuberculosis H37R", "value": "1 to 32", "unit": "µg/mL"},
      {"measurement": "IC50", "setting": "Vero Cell", "value": "> 32", "unit": "µg/mL"}
    ]},
    {"smiles": "C[C@]1(CN2CCc3sc(-c4ccc(F)cc4)nc3C2)Cn2cc([N+](=O)[O-])nc2O1", "note": "[Compound 67, (S)-2-((2-(4-Fluorophenyl)-6,7-dihydrothiazolo[4,5-c]pyridin-5(4H)-yl)methyl)-2-methyl-6-nitro-2,3-dihydroimidazo[2,1-b]oxazole]", "values": [
      {"measurement": "MIC", "setting": "[1]", "value": "< 1", "unit": "µg/mL"},
      {"measurement": "MIC", "setting": "[2]", "value": "< 1", "unit": "µg/mL"},
      {"measurement": "IC50", "setting": "Vero Cell", "value": "> 32", "unit": "µg/mL"}
    ]},
    {"smiles": "C[C@]1(CN2CCc3nc(-c4cccc(F)c4)ccc3C2)Cn2cc([N+](=O)[O-])nc2O1", "note": "[Compound 6, (S)-2-((2-(3-Fluorophenyl)-7,8-dihydro-1,6-naphthyridin-6(5H)-yl)methyl)-2-methyl-6-nitro-2,3-dihydroimidazo[2,1-b]oxazole]", "values": [
      {"measurement": "MIC", "setting": "[1]", "value": "< 1", "unit": "µg/mL"},
      {"measurement": "MIC", "setting": "[2]", "value": "< 1", "unit": "µg/mL"},
      {"measurement": "MIC", "setting": "M. tuberculosis H37R", "value": "1 to 32", "unit": "µg/mL"},
      {"measurement": "IC50", "setting": "Vero Cell", "value": "> 32", "unit": "µg/mL"}
    ]},
    {"smiles": "C[C@]1(CN2CCc3nc(-c4cc(F)cc(F)c4)ccc3C2)Cn2cc([N+](=O)[O-])nc2O1", "note": "[Compound 14, (S)-2-((2-(3,5-Difluorophenyl)-7,8-dihydro-1,6-naphthyridin-6(5H)-yl)methyl)-2-methyl-6-nitro-2,3-dihydroimidazo[2,1-b]oxazole]", "values": [
      {"measurement": "MIC", "setting": "[1]", "value": "< 1", "unit": "µg/mL"},
      {"measurement": "MIC", "setting": "[2]", "value": "< 1", "unit": "µg/mL"},
      {"measurement": "MIC", "setting": "M. tuberculosis H37R", "value": "1 to 32", "unit": "µg/mL"},
      {"measurement": "IC50", "setting": "Vero Cell", "value": "> 32", "unit": "µg/mL"}
    ]},
    {"smiles": "C[C@]1(CN2CCCc3nc(-c4ccc(F)cc4)ccc3C2)Cn2cc([N+](=O)[O-])nc2O1", "note": "[Compound 96, (S)-2-((2-(4-Fluorophenyl)-8,9-dihydro-5H-pyrido[3,2-c]azepin-6(7H)-yl)methyl)-2-methyl-6-nitro-2,3-dihydroimidazo[2,1-b]oxazole]", "values": [
      {"measurement": "MIC", "setting": "[1]", "value": "< 1", "unit": "µg/mL"},
      {"measurement": "MIC", "setting": "[2]", "value": "< 1", "unit": "µg/mL"},
      {"measurement": "MIC", "setting": "M. tuberculosis H37R", "value": "1 to 32", "unit": "µg/mL"},
      {"measurement": "IC50", "setting": "Vero Cell", "value": "> 32", "unit": "µg/mL"}
    ]},
    {"smiles": "C[C@]1(CN2CCc3nc(-c4ccc(F)cc4)oc3C2)Cn2cc([N+](=O)[O-])nc2O1", "note": "[Compound 61, (S)-2-(4-Fluorophenyl)-5-((2-methyl-6-nitro-2,3-dihydroimidazo[2,1-b]oxazol-2-yl)methyl)-4,5,6,7-tetrahydrooxazolo[5,4-c]pyridine]", "values": [
      {"measurement": "MIC", "setting": "[1]", "value": "< 1", "unit": "µg/mL"},
      {"measurement": "MIC", "setting": "[2]", "value": "< 1", "unit": "µg/mL"},
      {"measurement": "MIC", "setting": "M. tuberculosis H37R", "value": "1 to 32", "unit": "µg/mL"},
      {"measurement": "IC50", "setting": "Vero Cell", "value": "> 32", "unit": "µg/mL"}
    ]},
    {"smiles": "CN(c1ccc(F)cc1)c1nc2c(s1)CN(C[C@@]1(C)Cn3cc([N+](=O)[O-])nc3O1)C2", "note": "[Compound 85, (S)—N-(4-Fluorophenyl)-N-methyl-5-((2-methyl-6-nitro-2,3-dihydroimidazo[2,1-b]oxazol-2-yl)methyl)-5,6-dihydro-4H-pyrrolo[3,4-d]thiazol-2-amine]", "values": [
      {"measurement": "MIC", "setting": "[1]", "value": "< 1", "unit": "µg/mL"},
      {"measurement": "MIC", "setting": "[2]", "value": "< 1", "unit": "µg/mL"},
      {"measurement": "IC50", "setting": "Vero Cell", "value": "> 32", "unit": "µg/mL"}
    ]},
    {"smiles": "C[C@]1(CN2Cc3nc(-c4ccc(F)c(F)c4)sc3C2)Cn2cc([N+](=O)[O-])nc2O1", "note": "[Compound 71, (S)-2-((2-(3,4-Difluorophenyl)-4H-pyrrolo[3,4-d]thiazol-5(6H)-yl)methyl)-2-methyl-6-nitro-2,3-dihydroimidazo[2,1-b]oxazole]", "values": [
      {"measurement": "MIC", "setting": "[1]", "value": "< 1", "unit": "µg/mL"},
      {"measurement": "MIC", "setting": "[2]", "value": "< 1", "unit": "µg/mL"},
      {"measurement": "IC50", "setting": "Vero Cell", "value": "> 32", "unit": "µg/mL"}
    ]},
    {"smiles": "C[C@]1(CN2Cc3nc(-c4ccc(F)cc4F)sc3C2)Cn2cc([N+](=O)[O-])nc2O1", "note": "[Compound 78, (S)-2-((2-(2,4-Difluorophenyl)-4H-pyrrolo[3,4-d]thiazol-5(6H)-yl)methyl)-2-methyl-6-nitro-2,3-dihydroimidazo[2,1-b]oxazole]", "values": [
      {"measurement": "MIC", "setting": "[1]", "value": "< 1", "unit": "µg/mL"},
      {"measurement": "MIC", "setting": "[2]", "value": "< 1", "unit": "µg/mL"},
      {"measurement": "IC50", "setting": "Vero Cell", "value": "> 32", "unit": "µg/mL"}
    ]}
  ]
}
